# Laboratory results: article PMC3172808 (Journal of medicinal chemistry, 2011)
# How the values were obtained:
# [1] = rodents; ref [7]–[9]; cited from earlier work
# [2] = tested on: renal carcinoma cell line 786-0; assay: potency toward MDR-1 expressing 786-0 cells with and without verapamil; type: cell-based
# [3] = aqueous solubility; type: physicochemical
# [4] = over 24 h; ref [16]; cited from earlier work
# [5] = tested on: MDA-MB-231 breast cancer model; conditions: continued dosing at 40 mg/kg (½MTD), ref [16], cited from earlier work
# [6] = tested on: MCF-7 cancer cells; conditions: read-out: MCF-7 IC50; Table 1; ref [17]–[20]; cited from earlier work
# [7] = tested on: A2780ADR; assay: potency toward A2780ADR; type: cell-based, human; conditions: read-out: drug IC50 A2780ADR; adriamycin resistant, MDR-1 overexpression
# [8] = tested on: A2780cis; assay: potency toward A2780cis; type: cell-based, human; conditions: read-out: drug IC50 A2780cis; cisplatin resistant
compound,measurement,setting,value
"COc1cc2c(c(OC)c1OC)-c1ccc(OC)c(=O)cc1[C@@H](NC(C)=O)CC2 [Compound 1, colchicine]",LD50,[1],< 5 mg/kg
"COc1cc(C(=O)c2c(C)oc3c(O)c(OC)ccc23)cc(OC)c1OC [Compound 8, 7-hydroxy-6-methoxy-2-methyl-3-(3,4,5-trimethoxybenzoyl)benzo-[b]furan]",MDR-1 transporter substrate,[2],not a substrate for the MDR-1 transporter
same,aqueous solubility,[3],poor
same,clearance from healthy tissues,[4],completely cleared from healthy tissues over 24 h
"COc1cc(C(=O)c2c(C)oc3c(OP(=O)([O-])[O-])c(OC)ccc23)cc(OC)c1OC.[Na+].[Na+] [Compound 9, Disodium (6-Methoxy-2-methyl-3-(3,4,5-trimethoxybenzoyl)benzofuran-7-yl)phosphate]","complete eradication of tumors, % of the mice",[5]; after 70 days,14%
same,tumor growth on continued dosing,[5],completely suppresses tumor growth
COc1ccc(-c2sccc2C(=O)c2cc(OC)c(OC)c(OC)c2)cc1O [Compound 14],IC50,[6],300 ± 400 nM
N.N.[Cl][Pt][Cl] [cisplatin],IC50,[7],1100 nM
same,IC50,[8],5020 nM
